In patent publication US10450316B2, “Certain protein kinase inhibitor” (Chongqing Fochon Pharmaceutical Co., Ltd., priority 2015, dated 2019):

Tested on: BE(2)-C cell
Test: Cell proliferation assay (MTS) in BE(2)-C cells
Type: cell-based
Conditions: Homo sapiens, inhibition of BE(2)-C cell proliferation, 48 h
Method: MTS testing kit was purchased from Promega. The DMEM, Fetal bovine serum and Penicillin-Streptomycin were purchased from Gibco. Dimethyl sulfoxide (DMSO) was purchased from Sigma.
To investigate whether a compound is able to inhibit the activity of CDK4/6 in cells, mechanism-based assays using BE(2)-C cell (ATCC® number:CRL-2268) were developed. In the assay, inhibition of CDK4/6 was detected by the inhibition of BE(2)-C cell cells proliferation. BE(2)-C cell cells were cultured in culture flasks to 40-80% confluence in DMEM plus 10% fetal bovine serum. Cells were collected and plated onto 96-well plates at cell density of 3000 cells/well. Plates were incubated overnight at 37° C., with 5% CO2 to adhere. Compounds were added to the plates, the final compound concentrations were 10000, 3333, 1111, […], 123.5, 41.2, 13.7, 4.6 and 1.5 nM. Place plates at 37° C., with 5% CO2 for 48 h. After removing the medium, 20 μl MTS/100 μl medium mixture solution were added to each well and incubate the plates for exactly 2 hours. The reaction was terminated by adding 25 μl 10% SDS per well. Measure absorbance at 490 nm and 650 nm (reference wavelength). IC50 was calculated using GraphPad Prism 5.0.
Select compounds prepared as described above were assayed according to the biological procedures described herein. “++++” stands for IC50 value below about 10 nM. “+++” stands for IC50 value between greater than about 10 nM to about 100 nM. “++” stands for IC50 value between greater than about 100 nM to about […]. “+” stands for IC50 value greater than 1 μM.

| SMILES | IC50 [nM] |
| --- | --- |
| CCN1CCC2(CC1)CCN(Cc1ccc(Nc3ncc(F)c(-c4cc(F)c5nc6n(c5c4)[C@H](C(F)F)CC6)n3)nc1)CC2 [Example 53, (S)-4-(1-(difluoromethyl)-5-fluoro-2,3-dihydro-1H-benzo[d]pyrrolo[1,2-a]imidazol-7-yl)-N-(5-((9-ethyl-3,9-diazaspiro[5.5]undecan-3-yl)methyl)pyridin-2-yl)-5-fluoropyrimidin-2-amine] | > 100 |
| C[C@@H]1CCc2nc3c(F)cc(-c4nc(Nc5ccc(CN6CCNCC6)cn5)ncc4F)cc3n21 [Example 82, (R)-5-fluoro-4-(5-fluoro-1-methyl-2,3-dihydro-1H-benzo[d]pyrrolo[1,2-a]imidazol-7-yl)-N-(5-(piperazin-1-ylmethyl)pyridin-2-yl)pyrimidin-2-amine] | 10 to 100 |
| CCN1CCN(Cc2ccc(Nc3ncc(F)c(-c4cc(F)c5nc6n(c5c4)[C@H](CO)CC6)n3)nc2)CC1 [Example 3, (S)-(7-(2-((5-((4-ethylpiperazin-1-yl)methyl)pyridin-2-yl)amino)-5-fluoropyrimidin-4-yl)-5-fluoro-2,3-dihydro-1H-benzo[d]pyrrolo[1,2-a]imidazol-1-yl) methanol] | > 100 |
| CN1C[C@@H]2C[C@H]1CN2Cc1ccc(Nc2ncc(F)c(-c3cc(F)c4nc5n(c4c3)C3(CC5)CC3)n2)nc1 [Example 136, 5-fluoro-4-(5-fluoro-2,3-dihydrospiro[benzo[d]pyrrolo[1,2-a]imidazole-1,1′-cyclopropan]-7-yl)-N-(5-(((1S,4S)-5-methyl-2,5-diazabicyclo[2.2.1]heptan-2-yl)methyl)pyridin-2-yl)pyrimidin-2-amine] | > 100 |
| C[C@@H]1CCc2nc3c(F)cc(-c4nc(Nc5ccc(CN6CC7(CNC7)C6)cn5)ncc4F)cc3n21 [Example 95, (R)-N-(5-((2,6-diazaspiro[3.3]heptan-2-yl)methyl)pyridin-2-yl)-5-fluoro-4-(5-fluoro-1-methyl-2,3-dihydro-1H-benzo[d]pyrrolo[1,2-a]imidazol-7-yl)pyrimidin-2-amine] | > 1000 |
| CN1CC2(C1)CN(Cc1ccc(Nc3ncc(F)c(-c4cc(F)c5nc6n(c5c4)[C@H](CF)CC6)n3)nc1)C2 [Example 24, (S)-5-fluoro-4-(5-fluoro-1-(fluoromethyl)-2,3-dihydro-1H-benzo[d]pyrrolo[1,2-a]imidazol-7-yl)-N-(5-((6-methyl-2,6-diazaspiro[3.3]heptan-2-yl)methyl)pyridin-2-yl)pyrimidin-2-amine] | > 100 |
| CN1C2CCC1CN(Cc1ccc(Nc3ncc(F)c(-c4cc(F)c5nc6n(c5c4)[C@H](C(F)(F)F)CC6)n3)nc1)C2 [Example 80, 5-fluoro-4-((S)-5-fluoro-1-(trifluoromethyl)-2,3-dihydro-1H-benzo[d]pyrrolo[1,2-a]imidazol-7-yl)-N-(5-((8-methyl-3,8-diazabicyclo[3.2.1]octan-3-yl)methyl)pyridin-2-yl)pyrimidin-2-amine] | 10 to 100 |
| CCN1CCN(c2ccc(Nc3ncc(F)c(-c4cc(F)c5nc6n(c5c4)[C@H](C(F)F)CC6)n3)nc2)CC1 [Example 40, (S)-4-(1-(difluoromethyl)-5-fluoro-2,3-dihydro-1H-benzo[d]pyrrolo[1,2-a]imidazol-7-yl)-N-(5-(4-ethylpiperazin-1-yl)pyridin-2-yl)-5-fluoropyrimidin-2-amine] | > 1000 |
| OC[C@@H]1CCc2nc3c(F)cc(-c4nc(Nc5ccc(CN6CCNCC6)cn5)ncc4F)cc3n21 [Example 1, (S)-(5-fluoro-7-(5-fluoro-2-((5-(piperazin-1-ylmethyl)pyridin-2-yl)amino)pyrimidin-4-yl)-2,3-dihydro-1H-benzo[d]pyrrolo[1,2-a]imidazol-1-yl)methanol] | > 1000 |
| COC[C@H]1CCc2nc3c(F)cc(-c4nc(Nc5ccc(CN6CCNCC6)cn5)ncc4F)cc3n21 [Example 158, (R)-5-fluoro-4-(5-fluoro-1-(methoxymethyl)-2,3-dihydro-1H-benzo[d]pyrrolo[1,2-a]imidazol-7-yl)-N-(5-(piperazin-1-ylmethyl)pyridin-2-yl)pyrimidin-2-amine] | > 1000 |
| CN1CCC2(CC1)CN(Cc1ccc(Nc3ncc(F)c(-c4cc(F)c5nc6n(c5c4)C(C)(C)CC6)n3)nc1)C2 [Example 112, 5-fluoro-4-(5-fluoro-1,1-dimethyl-2,3-dihydro-1H-benzo[d]pyrrolo[1,2-a]imidazol-7-yl)-N-(5-((7-methyl-2,7-diazaspiro[3.5]nonan-2-yl)methyl)pyridin-2-yl)pyrimidin-2-amine] | < 10 |
| CCN1C[C@@H]2C[C@H]1CN2Cc1ccc(Nc2ncc(F)c(-c3cc(F)c4nc5n(c4c3)C3(CC5)CC3)n2)nc1 [Example 137, N-(5-(((1S,4S)-5-ethyl-2,5-diazabicyclo[2.2.1]heptan-2-yl)methyl)pyridin-2-yl)-5-fluoro-4-(5-fluoro-2,3-dihydrospiro[benzo[d]pyrrolo[1,2-a]imidazole-1,1′-cyclopropan]-7-yl)pyrimidin-2-amine] | 10 to 100 |
| CCN1CCN(Cc2ccc(Nc3ncc(F)c(-c4cc(F)c5nc6n(c5c4)[C@@H](COC)CC6)n3)nc2)CC1 [Example 160, (R)-N-(5-((4-ethylpiperazin-1-yl)methyl)pyridin-2-yl)-5-fluoro-4-(5-fluoro-1-(methoxymethyl)-2,3-dihydro-1H-benzo[d]pyrrolo[1,2-a]imidazol-7-yl)pyrimidin-2-amine] | > 100 |
| CCN1CC2CN(Cc3ccc(Nc4ncc(F)c(-c5cc(F)c6nc7n(c6c5)[C@H](C(F)(F)F)CC7)n4)nc3)CC2C1 (stereo partly drawn) [Example 75, N-(5-((5-ethylhexahydropyrrolo[3,4-c]pyrrol-2(1H)-yl)methyl)pyridin-2-yl)-5-fluoro-4-((S)-5-fluoro-1-(trifluoromethyl)-2,3-dihydro-1H-benzo[d]pyrrolo[1,2-a]imidazol-7-yl)pyrimidin-2-amine] | 10 to 100 |
| CN1CC2(C1)CN(Cc1ccc(Nc3ncc(F)c(-c4cc(F)c5nc6n(c5c4)[C@H](C(F)(F)F)CC6)n3)nc1)C2 [Example 68, (S)-5-fluoro-4-(5-fluoro-1-(trifluoromethyl)-2,3-dihydro-1H-benzo[d]pyrrolo[1,2-a]imidazol-7-yl)-N-(5-((6-methyl-2,6-diazaspiro[3.3]heptan-2-yl)methyl)pyridin-2-yl)pyrimidin-2-amine] | 10 to 100 |
| CCN1CC2(CCN(Cc3ccc(Nc4ncc(F)c(-c5cc(F)c6nc7n(c6c5)[C@H](C)CC7)n4)nc3)CC2)C1 [Example 88, (R)-N-(5-((2-ethyl-2,7-diazaspiro[3.5]nonan-7-yl)methyl)pyridin-2-yl)-5-fluoro-4-(5-fluoro-1-methyl-2,3-dihydro-1H-benzo[d]pyrrolo[1,2-a]imidazol-7-yl)pyrimidin-2-amine] | 10 to 100 |
| CC1(C)CCc2nc3c(F)cc(-c4nc(Nc5ccc(CN6CCC7(CCNCC7)CC6)cn5)ncc4F)cc3n21 [Example 120, N-(5-((3,9-diazaspiro[5.5]undecan-3-yl)methyl)pyridin-2-yl)-5-fluoro-4-(5-fluoro-1,1-dimethyl-2,3-dihydro-1H-benzo[d]pyrrolo[1,2-a]imidazol-7-yl)pyrimidin-2-amine] | > 100 |
| Fc1cnc(Nc2ccc(CN3CC4(CNC4)C3)cn2)nc1-c1cc(F)c2nc3n(c2c1)[C@H](C(F)(F)F)CC3 [Example 67, (S)-N-(5-((2,6-diazaspiro[3.3]heptan-2-yl)methyl)pyridin-2-yl)-5-fluoro-4-(5-fluoro-1-(trifluoromethyl)-2,3-dihydro-1H-benzo[d]pyrrolo[1,2-a]imidazol-7-yl)pyrimidin-2-amine] | > 100 |
| CCN1CCC2(CC1)CCN(Cc1ccc(Nc3ncc(F)c(-c4cc(F)c5nc6n(c5c4)[C@H](C(F)(F)F)CC6)n3)nc1)CC2 [Example 72, (S)-N-(5-((9-ethyl-3,9-diazaspiro[5.5]undecan-3-yl)methyl)pyridin-2-yl)-5-fluoro-4-(5-fluoro-1-(trifluoromethyl)-2,3-dihydro-1H-benzo[d]pyrrolo [1,2-a]imidazol-7-yl)pyrimidin-2-amine] | 10 to 100 |
| CCN1CCC2(CC1)CN(Cc1ccc(Nc3ncc(F)c(-c4cc(F)c5nc6n(c5c4)[C@H](CF)CC6)n3)nc1)C2 [Example 22, (S)-N-(5-((7-ethyl-2,7-diazaspiro[3.5]nonan-2-yl)methyl)pyridin-2-yl)-5-fluoro-4-(5-fluoro-1-(fluoromethyl)-2,3-dihydro-1H-benzo[d]pyrrolo[1,2-a]imidazol-7-yl)pyrimidin-2-amine] | > 100 |
| C[C@@H]1CCc2nc3c(F)cc(-c4nc(Nc5ccc(CN6C7CCC6CNC7)cn5)ncc4F)cc3n21 [Example 101, N-(5-((3,8-diazabicyclo[3.2.1]octan-8-yl)methyl)pyridin-2-yl)-5-fluoro-4-((R)-5-fluoro-1-methyl-2,3-dihydro-1H-benzo[d]pyrrolo[1,2-a]imidazol-7-yl)pyrimidin-2-amine] | > 100 |
| CCN1CC2(C1)CN(Cc1ccc(Nc3ncc(F)c(-c4cc(F)c5nc6n(c5c4)[C@H](C)CC6)n3)nc1)C2 [Example 97, (R)-N-(5-((6-ethyl-2,6-diazaspiro[3.3]heptan-2-yl)methyl)pyridin-2-yl)-5-fluoro-4-(5-fluoro-1-methyl-2,3-dihydro-1H-benzo[d]pyrrolo[1,2-a]imidazol-7-yl)pyrimidin-2-amine] | 10 to 100 |
